Experiments:
[1] = system: Foxp3+ regulatory T cells; test: In vitro regulatory T cell (Foxp3+ Treg) production from human peripheral blood CD4 T cells; type: cell-based; conditions: anti-CD3/anti-CD28, TGFβ-1, IL-2, 2.5 μM, 7 days
Description: Human peripheral blood (AllCells) and phosphate buffered saline (PBS) were mixed in a ratio of 1:1 to prepare a mixture, followed by allowing the mixture to slowly rise so as not to be mixed into the upper layer of Histopaque (Sigma). After centrifugation at 350 g for 20 minutes, only the monocyte layer in the middle layer was collected and washed with HBSS (Hanks' Balanced Salt Solution, Gibco®). After washing with MACS buffer (Miltenyi Biotec) once more to obtain T-cells, positive selection (autoMACS seperator, Miltenyi Biotec) was performed with CD4 Microbeads (Miltenyi Biotec). The T-cells collected by the above method were prepared by resuspending the cells in RPMI-fetal bovine serum (FBS) 10%+2-ME (mercaptoethanol) medium at 5×10^5/ml. For T-cell activation, 10 μg/ml anti-CD3 (eBioscience™) was dispensed by 150 μl into a 48-well plate, reacted in a cell incubator (37° C., 5% CO2 incubator) for 3 hours, and washed with phosphate buffered saline to prepare the plate. 250 μl of resuspended T-cells was dispensed onto the prepared plate, and each well was treated with 2 μg/ml of anti-CD28 (eBioscience™), 5 ng/ml of TGFβ-1 (R&D systems), and 50 U/ml of IL-2 (Miltenyi Biotec). Each 5 μl of compounds at a concentration of 2.5 μM diluted in RPMI+2ME medium was used for treatment, followed by culturing the same in a cell incubator (37° C., 5% CO2 incubator) for 7 days. As a control, 5 μl of 0.05% dimethylsulfoxide (DMSO)/RPMI medium was used for treatment. After 7 days, in order to confirm effects of producing regulatory T cells, the cultured cells were recovered to determine the presence of Foxp3 protein.
The recovered cells were placed in a 5 ml FACS tube (BD Falcon) and washed with 1 ml of phosphate buffered saline. The cells were resuspended in 0.1 ml of FACS buffer (0.1% NaN3, 1% FBS) and treated with 1 μg of human immunoglobulin G (Human IgG, Sigma) to prevent non-specific binding of the antibody. After reacting at 4° C. for 15 minutes, the cells were washed with FACS buffer. Then, 1 ml of Fixation/Permeabilization solution (eBioscience™) was added to the FACS tube containing each sample, followed by reaction at 4° C. for 1 hour. Thereafter, the product was washed twice with a Permeabilization buffer (eBioscience™). Then, 0.25 μg of Foxp3 monoclonal antibody (eBioscience™) was used for treatment, followed by staining the sample for 4 to 30 minutes. The cells were washed twice with the permeabilization buffer, suspended in 0.3 ml of FACS buffer, and measured by flow cytometry.

[2] = system: C57BL/6 mice with graft-versus-host disease; test: Acute graft-versus-host disease model (allogeneic bone marrow transplantation), severity index; type: in vivo, mouse; conditions: 20 mg/kg intraperitoneally daily 4 to 9 days after transplantation; 14th day after transplantation; total of 10 points; solvent control 6.20±1.20
Description: The spleen of Balb/c IFN-γ knockout mouse (8 to 12 weeks old, female, 18±3 g) was excised, pulverized by adding RPMI medium, and then passed through a 40 μm cell strainer (BD Falcon), thereby obtaining a single cell suspension. The single cell suspension was centrifuged (1200 rpm, 5 minutes), and after discarding the supernatant, 1 ml of ACK (ammonium chloride/potassium bicarbonate) lysis buffer (0.15 M NH4Cl, 1 mM KHCO3, 0.1 mM Na2EDTA) was added, followed by stirring for 1 minute and then washing the same with RPMI medium.
Then, CD90.2^+ T cells were obtained from the cell suspension using Auto MACS pro (Miltenyi Biotec) (positive selection). To obtain bone marrow cells to be transplanted together with the obtained CD90.2^+ T cells, both femurs and tibias of wild-type Balb/c mice (8-12 weeks old, female, 18±3 g) were aseptically acquired. […]
Normal C57BL/6 mice (9 to 11 weeks old, female, 19±3 g) were irradiated with 850 cGy of radiation divided at an interval of 3 hours by using a radiation irradiator. […] The graft-versus-host disease severity index was evaluated at an interval of 2 days by visual observation in a severity index system that was classified into a total of 10 points with 0 to 2 points for each item including reduction of body weight, hair condition, posture, activity and skin change.

[3] = system: IFN-γ, IL-17A, IL-1β, IL-10 and Foxp3 expression in spinal cord lesions; test: mRNA expression of inflammatory and immunomodulatory factors in spinal cord of EAE mice (real-time PCR); type: in vivo, mouse; conditions: 20 mg/kg i.p., 42nd day, compared to solvent control
From the text: On the 42nd day of the experiment, the spinal cord of the mouse was excised to prepare an mRNA sample. In order to extract mRNA, the spinal cord tissue was ground with a homogenizer to obtain a homogeneous suspension. […] Then, cDNA was synthesized from the isolated RNA by reverse transcription, and the expression of inflammatory cytokines was investigated through real-time polymerase chain reaction (PCR) using iQ SYBR-Green Supermix (Bio-rad) in the CFX96 (Bio-rad) detection system. Relative values of the enzyme expression levels were compared by the ΔΔct method using GAPDH as a control enzyme. Herein, one (1) fold was set using the WT mouse spinal cord as a control.
The real-time polymerase chain reaction was implemented under the conditions of cycles at an annealing temperature of 58° C., and the following primer sequences were used.

[4] = system: IL-1β, IL-6, IL-17A, TNF-α, IL-10 and Foxp3 expression in colon lesions; test: mRNA expression of inflammatory and immunomodulatory factors in colon of DSS mice (real-time PCR); type: in vivo, mouse; conditions: 20 mg/kg oral, 15th day, compared to solvent control
From the text: On the 15th day of the experiment, the colon of the mouse was excised to prepare an mRNA sample. In order to extract mRNA, the colon tissue was ground with a homogenizer to acquire a homogeneous suspension. […] From the isolated RNA, cDNA was synthesized by reverse transcription followed by confirming the expression of inflammatory cytokines through real-time polymerase chain reaction (PCR) using iQ SYBR-Green Supermix (Bio-rad) in the CFX96 (Bio-rad) detection system. Relative values of the enzyme expression levels were compared by the ΔΔct method using GAPDH as a control enzyme. Herein, one (1) fold was set using the normal mouse colon as a control.
The real-time polymerase chain reaction was implemented under the conditions of cycles at an annealing temperature of 58′° C. and the following primer sequences were used.

[5] = system: C57BL/6 mice with autoimmune encephalomyelitis (EAE); test: Experimental autoimmune encephalomyelitis (EAE) model of multiple sclerosis, severity index; type: in vivo, mouse; conditions: 20 mg/kg intraperitoneally daily 12th to 17th day
Description: On day 0, myelin oligodendrocyte glycoproteins 35-55 (MOG 35-55, Peptron) (200 μg), heat-killed Mycobacterium tuberculosis (Difco, Cat No. 231141) (500 μg), and adjuvant (Complete Freund's adjuvant, Sigma Aldrich, Cat No. F5506) were mixed together and then submerged for 7 minutes. After subcutaneous injection of 100 μl of the submerged peptide into both flanks of each of C57BL/6 mice (7 weeks old, female, 17±2 g), 100 μl of pertussis toxin (Sigma Aldrich. Cat No. P2980) (200 ng) was administered intravenously to the tail.
On the 2nd day of the experiment, the same amount of pertussis toxin was administered intravenously. The mice were checked for immersion leaking from the injected site, and visually observed from the 7th day of the experiment in order to confirm the onset of multiple sclerosis.
The multiple sclerosis index was visually observed and recorded at an interval of 2 days from the 7th day of the experiment in the severity index system classified into 0-5 stages, and autoimmune encephalomyelitis symptoms were indexed according to the following items (see Table 4).

[6] = scale 0-5, solvent control 3.33±0.17

## O=C(Cc1c[nH]c2ccc(Cl)cc12)Nc1ccc(Cl)c(F)n1 [Compound 26, 2-(5-chloro-1H-indol-3-yl)-N-(5-chloro-6-fluoropyridin-2-yl)acetamide]
[1]
  generation of Foxp3+ regulatory T cells: promoted
[2]
  graft-versus-host disease severity index: 2.80±0.80
[3]
  expression level of Foxp3 in spinal cord lesions: significantly increased
  expression level of IFN-γ in the spinal cord lesion: significantly reduced
  expression level of IL-1β in the spinal cord lesion: significantly reduced
  expression level of IL-10 in spinal cord lesions: significantly increased
  expression level of IL-17A in the spinal cord lesion: significantly reduced
[4]
  expression level of Foxp3 in the colon lesion: significantly increased
  expression level of IL-1β in colon lesions: significantly reduced
  expression level of IL-6 in colon lesions: significantly reduced
  expression level of IL-10 in the colon lesion: significantly increased
  expression level of IL-17A in colon lesions: significantly reduced
  expression level of TNF-α in colon lesions: significantly reduced
[5]
  treatment effects on EAE severity index compared to solvent control from the 16th day, maintained after administration was stopped: statistically significant treatment effects
[5]; [6]
  severity index (EAE), 18th day, acute reaction period: 1.33±0.56
  severity index (EAE), 36th day, chronic reaction period: 1.33±0.22
